Data reported in US20260023068A1, “USE OF A FBXO42 SPECIFIC INHIBITOR IN TREATING NOTCH SIGNALING-DEPENDENT DISEASE” (WESTLAKE UNIVERSITY, priority 2022, published 2026).

Tested on: FBXO42-mediated K63-linked polyubiquitination of RBPJ
Experiment: In vivo ubiquitination assay of RBPJ in transfected HEK293T cells
Type: cell-based, human
Settings: DMSO or MLN4924, western blotting (FIG. 4K)
Experimental: (A) cSFB-RBPJ, hemagglutinin-ubiquitin (HA-Ub) and Myc-FBXO42 WT were cotransfected into HEK293T cells as indicated and treated with or without MG132 for 4 h. The cell lysates were incubated with S beads and analyzed by western blotting for RBPJ polyubiquitination detection. (B) Immunoprecipitated endogenous RBPJ products from WT and FBXO42 KO cells were immunoblotted for Ub. (C) cSFB-RBPJ, hemagglutinin-ubiquitin (HA-Ub) and Myc-FBXO42 WT or AF mutant were cotransfected into HEK293T cells. The cell lysate was collected and analyzed for RBPJ polyubiquitination. (D) HEK293T cells were transfected with cSFB-RBPJ, Myc-FBXO42 and HA-Ub with or without FLAG-NICD1 overexpression. The cell lysates were incubated with S beads and analyzed by western blotting for RBPJ polyubiquitination detection. […] The degree of RBPJ polyubiquitination was evaluated as described above. […] The cell lysates were incubated with S beads and analyzed by western blotting for RBPJ polyubiquitination detection. […] (J) Quantitation of the results shown in (I). […] The cell lysates were analyzed for RBPJ ubiquitination. […] (P) Efficiency of RBPJ short interfering RNAs (siRNAs) detected via western blotting. […] Quantitative data are presented as mean±SEM. P values were calculated using two-tailed Student's t-tests or ANOVA for multiple comparison. *P<0.05, **P<0.01, ***P<0.001, ##P<0.01 vs. FBXO42. […]

## NS(=O)(=O)OC[C@@H]1C[C@@H](n2ccc3c(N[C@H]4CCc5ccccc54)ncnc32)C[C@@H]1O [MLN4924]
  FBXO42-mediated K63-linked polyubiquitination of RBPJ: effectively abrogated
